Reference: patent US20060134195A1, “Mannose-based fast dissolving tablets” (priority 2002, published 2006)
“And” between values parts separate entries of the source, which are not always exact repeats. Identical values can stand only once. Like-named read-outs stand apart in the source and are kept apart here. One block for each molecule: values may come before it.

Columns and labels:
[1] = Tablet strength graded 1-5 by hand and by dropping the tablet; format: physicochemical; design: key: strength grade on a 1-5 scale
Description: (§1) A variety of candidate materials were used to make compressed tablets, and the tablet properties, such as strength and disintegration time, were examined. Particles of each material were compressed under different pressure by a Carver press. The hardness of the tablet was tested by hand for initial qualitative measurement and also by dropping the tablet from a certain height onto the laboratory bench top or to the floor. The tablet strength was graded by assigning a number ranging from 1-5. […] Each tablet was placed into 5 mL water and observed for 30 seconds to see if it disintegrated and dissolved in that time period.

[2] = Tablet placed into 5 mL water and observed for 30 seconds for disintegration and dissolution; format: physicochemical
Description: as §1

[3] = compression pressure 70.2 MPa, 5 mL water, 30 seconds
[4] = compression pressure 35.1 MPa, 5 mL water, 30 seconds
[5] = compression pressure 105 MPa, 5 mL water, 30 seconds
[6] = summary of the materials survey, pressure not stated

Molecule: Cn1c(=O)c2c(ncn2C)n(C)c1=O [Caffeine, reference compound]
Tablet Strength ([1]; compression pressure 35.1 MPa): 3
Tablet Strength ([1]; compression pressure 70.2 MPa): 4
Disintegration Characteristics [2, 3]: Breaking into particles after 20 sec.

Molecule: O=C([O-])[O-].[Na+].[Na+] [Sodium Carbonate]
Tablet Strength [1]: 4 and 3
Disintegration Characteristics [2]: No disintegration.

Disintegration Characteristics [2, 4]: No disintegration.
Disintegration Characteristics [2, 3]: No disintegration.
Disintegration Characteristics [2, 5]: No disintegration.
Molecule: Cn1c(=O)c2[nH]cnc2n(C)c1=O [Theophyline, reference compound]

Molecule: O=C([O-])[O-].[Ca+2] [Calcium Carbonate]
Tablet Strength [1]: 2
Disintegration (screening summary) [2]: fast disintegration

Tablet Strength ([1]; compression pressure 105 MPa): 2
Disintegration (screening summary) [2, 6]: fast disintegration
Molecule: NCC(=O)O [Glycine]

Tablet Strength ([1]; compression pressure 70.2 MPa): 4
Disintegration (screening summary) [2, 6]: fast disintegration
Molecule: O=P([O-])([O-])O.[Ca+2] [DITAB, Calcium Phosphate, Dibasic]

Molecule: CC(=O)[O-].CC(=O)[O-].[Zn+2] [Zinc Acetate]
Tablet Strength [1]: 3
Disintegration Characteristics [2]: No disintegration.

Molecule: O.OC[C@H]1O[C@@H](O[C@H]2[C@H](O)[C@@H](O)C(O)O[C@@H]2CO)[C@H](O)[C@@H](O)[C@H]1O (stereo partly shown) [Lactose monohydrate]
Tablet Strength ([1]; compression pressure 70.2 MPa): 3

Tablet Strength ([1]; compression pressure 35.1 MPa): 1
Tablet Strength ([1]; compression pressure 70.2 MPa): 2
Tablet Strength ([1]; compression pressure 105 MPa): 2
Disintegration Characteristics [2, 4]: Instant disintegration
Disintegration Characteristics [2, 3]: Instant disintegration
Disintegration Characteristics [2, 5]: Instant disintegration
Disintegration (screening summary) [2, 6]: fast disintegration
Molecule: O=C1NS(=O)(=O)c2ccccc21.[Na] [Sodium Saccharin]

Tablet Strength ([1]; compression pressure 35.1 MPa): 1
Tablet Strength ([1]; compression pressure 70.2 MPa): 2
Tablet Strength ([1]; compression pressure 105 MPa): 2
Disintegration Characteristics [2, 3]: No disintegration.
Disintegration Characteristics [2, 5]: No disintegration.
Molecule: O=C(O)c1ccccc1O [Salicylic Acid]

Tablet Strength ([1]; compression pressure 70.2 MPa): 2
Tablet Strength ([1]; compression pressure 91.3 MPa): 2
Disintegration Characteristics ([2]; compression pressure 91.3 MPa, 5 mL water, 30 seconds): No improvement.
Molecule: OC[C@H]1O[C@@](CO)(O[C@H]2O[C@H](CO)[C@@H](O)[C@H](O)[C@H]2O)[C@@H](O)[C@@H]1O [Sucrose]

Tablet Strength ([1]; compression pressure 70.2 MPa): 2
Molecule: OC[C@@H](O)[C@@H](O)[C@H](O)[C@H](O)CO [Mannitol]

Molecule: CC(=O)[O-].CC(=O)[O-].[Ca+2] [Calcium Acetate]
Tablet Strength [1]: 4
Disintegration Characteristics [2]: No disintegration.

Tablet Strength ([1]; compression pressure 105 MPa): 3
Molecule: O=P([O-])(O)O.O=P([O-])(O)O.[Ca+2] [Calcium Phosphate, Monobasic]

Molecule: Calcium Gluconate
Tablet Strength ([1]; compression pressure 35.1 MPa): 4

Tablet Strength ([1]; compression pressure 35.1 MPa): 2
Tablet Strength ([1]; compression pressure 70.2 MPa): 3
Tablet Strength ([1]; compression pressure 105 MPa): 4
Molecule: CC(=O)Oc1ccccc1C(=O)O [Aspirin, reference compound]

Molecule: [Cl-].[Na+] [Sodium Chloride]
Tablet Strength ([1]; compression pressure 70.2 MPa): 2
Tablet Strength ([1]; compression pressure 105 MPa): 2
Disintegration Characteristics [2, 3]: No disintegration.
Disintegration Characteristics [2, 5]: No disintegration.

Molecule: [Ca+2].[Cl-].[Cl-] [Calcium Chloride]
Tablet Strength [1]: 4

Tablet Strength ([1]; compression pressure 105 MPa): 3
Disintegration (screening summary) [2, 6]: fast disintegration
Molecule: N[C@@H](CCC(=O)O)C(=O)O [Glutamic acid]

Tablet Strength ([1]; compression pressure 70.2 MPa): 3
Disintegration (screening summary) [2, 6]: fast disintegration
Molecule: OC[C@H]1O[C@H](O[C@H]2[C@H](O)[C@@H](O)[C@H](O)O[C@@H]2CO)[C@H](O)[C@@H](O)[C@@H]1O [Maltose]
Disintegration Characteristics [2, 3]: Total disintegration of the entire tablet.

Tablet Strength ([1]; compression pressure 35.1 MPa): 4
Tablet Strength ([1]; compression pressure 105 MPa): 4
Disintegration Characteristics [2, 4]: No disintegration.
Disintegration Characteristics [2, 5]: No disintegration.
Molecule: OC[C@H]1O[C@@H]2O[C@H]3[C@H](O)[C@@H](O)[C@@H](O[C@H]4[C@H](O)[C@@H](O)[C@@H](O[C@H]5[C@H](O)[C@@H](O)[C@@H](O[C@H]6[C@H](O)[C@@H](O)[C@@H](O[C@H]7[C@H](O)[C@@H](O)[C@@H](O[C@H]8[C@H](O)[C@@H](O)[C@@H](O[C@H]1[C@H](O)[C@H]2O)O[C@@H]8CO)O[C@@H]7CO)O[C@@H]6CO)O[C@@H]5CO)O[C@@H]4CO)O[C@@H]3CO [Beta-Cyclodextrin]

Tablet Strength ([1]; compression pressure 70.2 MPa): 3
Molecule: CC(C)Cc1ccc(C(C)C(=O)O)cc1 (stereo not shown) [Ibuprofen, reference compound]
